From ChEMBL document CHEMBL1201862, “PubChem BioAssay data set” (2004)
The source made the active and inactive calls.

Assays:
Cytochrome P450 3A4 [1] = target: T1, Cytochrome P450 3A4 (Homo sapiens, UniProt P08684); conditions: Potency
Vero = experiment: cells; format: functional; conditions: Chlorocebus sabaeus
[2] = target: T2, RNA-binding protein pos-1 (Caenorhabditis elegans, UniProt G5EF15); experiment: inhibitors of POS-1/mex-3 RNA binding, dose response, biochemical, fluorescence polarization (AID 1964);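 further: purified POS-1 fused to maltose binding protein made in E. coli; potency of compounds blocking POS-1 binding to fluorescent RNA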
T2 sequence (G5EF15 whole entry): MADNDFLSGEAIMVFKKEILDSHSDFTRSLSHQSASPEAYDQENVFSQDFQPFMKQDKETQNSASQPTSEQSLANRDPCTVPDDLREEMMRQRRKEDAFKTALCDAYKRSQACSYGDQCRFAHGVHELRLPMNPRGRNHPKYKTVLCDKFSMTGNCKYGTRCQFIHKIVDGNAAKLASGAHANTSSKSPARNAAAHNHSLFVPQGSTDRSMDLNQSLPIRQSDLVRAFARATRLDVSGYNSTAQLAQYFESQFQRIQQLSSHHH

[3] = target: T3, Zinc finger protein mex-5 (Caenorhabditis elegans, UniProt Q9XUB2); experiment: MEX-5/TCR-2 RNA interaction inhibitors, dose response, biochemical, C. elegans, fluorescence polarization (AID 1960)
T3 sequence (Q9XUB2 whole entry): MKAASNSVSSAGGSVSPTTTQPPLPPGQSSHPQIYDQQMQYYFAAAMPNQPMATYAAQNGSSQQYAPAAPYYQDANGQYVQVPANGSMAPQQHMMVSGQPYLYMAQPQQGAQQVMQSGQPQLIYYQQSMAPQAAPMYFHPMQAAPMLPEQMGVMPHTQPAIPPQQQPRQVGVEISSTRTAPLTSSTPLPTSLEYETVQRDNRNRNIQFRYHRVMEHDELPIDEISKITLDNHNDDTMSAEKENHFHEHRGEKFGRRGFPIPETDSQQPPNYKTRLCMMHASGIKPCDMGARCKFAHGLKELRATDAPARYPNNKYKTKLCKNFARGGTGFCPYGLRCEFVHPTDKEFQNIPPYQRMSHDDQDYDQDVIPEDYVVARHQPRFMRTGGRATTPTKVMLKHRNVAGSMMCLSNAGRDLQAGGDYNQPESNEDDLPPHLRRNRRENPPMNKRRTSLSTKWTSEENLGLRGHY

[4] = target: FAD-linked sulfhydryl oxidase ALR (Homo sapiens, UniProt P55789); experiment: inhibitors of human ALR sulfhydryl oxidase, dose response, biochemical, H2O2 detection, luminescence, cherry-pick (AID 493248)
[5] = C. albicans growth with fluconazole, confirmation, fluorescence, retest (AID 2467); format: functional, cell-based
[6] = Luminescence Cell-Based Dose Confirmation HTS to Identify Activators of 5'UTR Stem-Loop Driven Alpha-Synuclein mRNA Translation in H4 Neuroglioblastoma Cells. [Related pubchem assays: 1829 (Project Summary), 1814 (Primary HTS)]; format: functional
[7] = NIH-3T3 fibroblast cytotoxicity, dose response, cytotoxicity control, cell-based, fluorescence, Alamar Blue, secondary assay (AID 2327); format: functional;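 further: NIH-3T3 mouse fibroblasts cultured with fluconazole at 8 µg/mL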
H4 = experiment: Luminescence Cell-Based Dose Response HTS to Identify Activators of 5'UTR Stem-Loop Driven Prion Protein mRNA Translation in H4 Neuroglioblastoma Cells. [Related pubchem assays: 1829 (Project Summary), 1814 (Primary HTS)]; format: functional; conditions: Homo sapiens
[8] = Luminescence Cell-Based Dose Retest to Confirm Inhibitors of Cancer Stem Cells. [Related pubchem assays (depositor defined):AID2717, AID2721]; format: functional; conditions: Homo sapiens
[9] = HEp-2 cell cytotoxicity, dose response, cytotoxicity control for RSV inhibitor project, HTS (AID 2410); format: functional; conditions: human respiratory syncytial virus
[10] = Luminescence Cell-Based Dose Response HTS to Identify Activators of Luciferase Translation or Activity in H4 […] Cells. [Related pubchem assays: 1829 (Project Summary), 1814 (Primary HTS)]; format: functional
Cytochrome P450 3A4 [11] = target: T1, Cytochrome P450 3A4
Cytochrome P450 2C9 = Cytochrome P450 2C9 (Homo sapiens, UniProt P11712)
[12] = Luminescence Cell-Based Dose Response HTS to Identify Inhibitors of 5'UTR Stem-Loop Driven Prion Protein mRNA Translation in H4 Neuroglioblastoma Cells. [Related pubchem assays: 1827 (Project Summary), 1813 (Primary HTS)]; format: functional
[13] = inhibitors of SNCA 5'UTR-driven reporter translation, confirmation, H4 neuroglioma cells, luminescence (AID 1988); format: functional, cell-based
[14] = inhibitors of firefly luciferase expression or activity, dose response, H4 neuroglioma cells, luminescence (AID 1990); format: functional, cell-based
[15] = target: T4, Rac GTPase-activating protein 1 (Homo sapiens, UniProt Q9H0H5); experiment: MgcRacGAP GTPase-activating activity inhibitors, confirmation, biochemical, ADP Hunter fluorescence, primary and confirmatory (AID 624330); format: functional
T4 sequence (Q9H0H5 whole entry): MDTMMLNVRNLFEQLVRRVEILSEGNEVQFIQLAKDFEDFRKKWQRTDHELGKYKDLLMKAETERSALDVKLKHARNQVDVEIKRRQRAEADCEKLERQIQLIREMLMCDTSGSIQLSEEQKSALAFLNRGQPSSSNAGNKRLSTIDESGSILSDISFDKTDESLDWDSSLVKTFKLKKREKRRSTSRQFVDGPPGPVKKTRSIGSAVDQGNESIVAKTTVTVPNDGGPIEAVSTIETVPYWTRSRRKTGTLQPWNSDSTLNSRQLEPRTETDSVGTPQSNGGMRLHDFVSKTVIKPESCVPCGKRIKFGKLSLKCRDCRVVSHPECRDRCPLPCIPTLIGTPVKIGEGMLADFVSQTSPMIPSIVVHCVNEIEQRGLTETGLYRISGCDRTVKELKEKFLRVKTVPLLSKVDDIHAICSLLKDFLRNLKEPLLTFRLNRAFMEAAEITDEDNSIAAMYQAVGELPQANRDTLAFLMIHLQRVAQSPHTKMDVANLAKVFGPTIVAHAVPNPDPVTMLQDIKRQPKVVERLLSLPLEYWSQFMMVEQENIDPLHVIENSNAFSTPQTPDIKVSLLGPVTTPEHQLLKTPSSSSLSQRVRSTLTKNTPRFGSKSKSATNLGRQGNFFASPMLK

Large T antigen = Large T antigen (Simian virus 40, UniProt P03070); format: functional, Betapolyomavirus macacae;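 further: Confirmatory-stage PubChem screen for compounds that inhibit SV40 T antigen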
[16] = target: T5, Corticotropin-releasing factor receptor 2/Corticotropin-releasing factor-binding protein (Homo sapiens, UniProt P24387+Q13324); experiment: activators of CRF receptor 2 with binding protein – uHTS hits, confirmation (AID 602473); format: functional; conditions: read-out: EC50_Mean
T5 sequence (Q13324 whole entry): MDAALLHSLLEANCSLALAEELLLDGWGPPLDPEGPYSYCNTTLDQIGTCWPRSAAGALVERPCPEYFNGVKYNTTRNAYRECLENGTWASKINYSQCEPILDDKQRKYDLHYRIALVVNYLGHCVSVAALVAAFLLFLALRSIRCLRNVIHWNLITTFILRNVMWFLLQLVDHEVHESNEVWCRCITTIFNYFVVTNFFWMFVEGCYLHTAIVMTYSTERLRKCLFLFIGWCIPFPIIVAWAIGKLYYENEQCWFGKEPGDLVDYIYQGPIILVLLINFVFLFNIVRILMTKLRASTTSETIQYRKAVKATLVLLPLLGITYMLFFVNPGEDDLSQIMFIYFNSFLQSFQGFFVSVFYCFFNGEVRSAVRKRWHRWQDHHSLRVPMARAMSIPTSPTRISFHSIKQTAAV
T5 sequence (P24387 whole entry): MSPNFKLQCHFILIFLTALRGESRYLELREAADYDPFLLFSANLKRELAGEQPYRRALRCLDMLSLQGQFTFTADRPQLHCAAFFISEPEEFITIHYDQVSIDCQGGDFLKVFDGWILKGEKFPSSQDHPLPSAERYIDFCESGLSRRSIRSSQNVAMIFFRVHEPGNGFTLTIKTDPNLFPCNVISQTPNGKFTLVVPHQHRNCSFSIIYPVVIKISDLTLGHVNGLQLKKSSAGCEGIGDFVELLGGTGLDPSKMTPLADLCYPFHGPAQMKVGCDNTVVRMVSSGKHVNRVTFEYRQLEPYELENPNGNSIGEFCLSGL

T1 sequence (P08684 whole entry): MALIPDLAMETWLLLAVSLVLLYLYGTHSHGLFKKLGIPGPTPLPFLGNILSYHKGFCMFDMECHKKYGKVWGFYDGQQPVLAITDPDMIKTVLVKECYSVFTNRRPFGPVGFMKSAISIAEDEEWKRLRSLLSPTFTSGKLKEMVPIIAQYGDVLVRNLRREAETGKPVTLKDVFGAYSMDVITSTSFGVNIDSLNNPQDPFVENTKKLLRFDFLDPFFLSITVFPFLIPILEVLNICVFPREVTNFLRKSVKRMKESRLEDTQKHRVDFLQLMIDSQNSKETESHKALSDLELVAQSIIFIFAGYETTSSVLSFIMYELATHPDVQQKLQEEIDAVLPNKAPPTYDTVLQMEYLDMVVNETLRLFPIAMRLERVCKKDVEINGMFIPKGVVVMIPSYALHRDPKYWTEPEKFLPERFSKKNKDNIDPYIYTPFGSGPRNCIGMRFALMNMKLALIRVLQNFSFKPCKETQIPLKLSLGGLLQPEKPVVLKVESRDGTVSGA
Sequence of FAD-linked sulfhydryl oxidase ALR (P55789 whole entry): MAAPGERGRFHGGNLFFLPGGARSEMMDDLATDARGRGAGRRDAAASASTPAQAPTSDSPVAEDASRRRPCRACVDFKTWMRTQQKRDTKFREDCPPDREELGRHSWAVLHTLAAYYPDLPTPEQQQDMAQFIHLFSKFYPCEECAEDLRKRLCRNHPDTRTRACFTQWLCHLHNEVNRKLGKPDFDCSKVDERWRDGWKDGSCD
Sequence of Cytochrome P450 2C9 (P11712 whole entry): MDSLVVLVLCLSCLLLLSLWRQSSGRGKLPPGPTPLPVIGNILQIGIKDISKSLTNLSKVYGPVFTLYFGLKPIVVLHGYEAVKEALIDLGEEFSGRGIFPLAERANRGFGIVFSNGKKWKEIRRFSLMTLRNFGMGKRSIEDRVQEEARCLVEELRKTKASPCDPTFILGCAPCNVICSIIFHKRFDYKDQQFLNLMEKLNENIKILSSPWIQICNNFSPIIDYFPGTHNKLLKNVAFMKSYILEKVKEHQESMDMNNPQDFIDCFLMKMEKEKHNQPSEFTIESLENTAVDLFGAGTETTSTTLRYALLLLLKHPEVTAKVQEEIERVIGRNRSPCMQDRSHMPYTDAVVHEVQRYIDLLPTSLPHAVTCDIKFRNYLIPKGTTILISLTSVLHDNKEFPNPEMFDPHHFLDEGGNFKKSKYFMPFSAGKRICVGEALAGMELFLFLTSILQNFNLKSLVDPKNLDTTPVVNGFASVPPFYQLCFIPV
Sequence of Large T antigen (P03070 whole entry): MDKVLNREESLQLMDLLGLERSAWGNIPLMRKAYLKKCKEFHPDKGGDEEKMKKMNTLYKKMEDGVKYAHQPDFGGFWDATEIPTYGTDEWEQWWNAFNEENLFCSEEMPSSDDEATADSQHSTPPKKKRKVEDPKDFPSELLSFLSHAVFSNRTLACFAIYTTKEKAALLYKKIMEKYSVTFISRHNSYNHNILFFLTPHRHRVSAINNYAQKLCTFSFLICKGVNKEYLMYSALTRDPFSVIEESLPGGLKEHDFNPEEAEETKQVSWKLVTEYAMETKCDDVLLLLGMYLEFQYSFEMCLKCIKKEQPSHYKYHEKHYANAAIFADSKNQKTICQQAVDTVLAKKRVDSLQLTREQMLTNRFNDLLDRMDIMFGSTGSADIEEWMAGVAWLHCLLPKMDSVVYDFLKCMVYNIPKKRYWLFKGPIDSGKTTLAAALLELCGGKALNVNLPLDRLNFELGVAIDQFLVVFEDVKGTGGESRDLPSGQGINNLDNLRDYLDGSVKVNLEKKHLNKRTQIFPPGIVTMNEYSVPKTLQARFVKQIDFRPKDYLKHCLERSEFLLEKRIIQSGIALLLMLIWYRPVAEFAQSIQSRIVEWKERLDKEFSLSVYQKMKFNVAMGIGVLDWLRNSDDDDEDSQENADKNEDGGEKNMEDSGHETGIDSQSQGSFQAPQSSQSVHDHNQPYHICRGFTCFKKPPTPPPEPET

## O=C(OCC1CO1)C1CCCCC1C(=O)OCC1CO1 (stereo unspecified)
Cytochrome P450 3A4 [1]
  AC50: 25.1 µM (inconclusive)

## CCN1C(C)=C(C(=O)OC)C(c2ccccc2)N2C(=O)[C@](O)(C(=O)OC)CC(C#N)=C12 (stereo partly specified)
Cytochrome P450 3A4 [1]
  AC50: 3.98 µM (inconclusive)

## N#Cc1c(NC(=O)CSc2nc3ccccc3c(=O)n2Cc2ccco2)sc2c1CCCC2
Vero
  CC50: > 25 µM (active)

## CCOC(CNC(=O)CCc1c(C)nc2nc(C)nn2c1C)OCC
[2]
  EC50: > 300 µM (not active)
[3]
  EC50: > 300 µM (not active)

## COC(=O)[C@@H]1C[C@H]2CC[C@H](O)C[C@H]2N1Cc1ccc(C(F)(F)F)cc1
Cytochrome P450 3A4 [1]
  AC50: 12.6 µM (inconclusive)

## COc1ccc(N2CC(NC(=O)N3CCN(c4ccccc4)CC3)CC2=O)cc1 (stereo unspecified)
[4]
  AC50: 4.41 µM (active)

## Cc1ccc(C2=CSC3=NNC4(CCCCC4)NN23)cc1
[5]
  EC50: 1.76 µM (active)
[6]
  EC50: 9.71 µM (active)
[4]
  AC50: 1.86 µM (active)
[7]
  EC50: 22.3 µM (inconclusive)
H4
  EC50: 12.4 µM (active)

## O=C(NCc1nnc(S)n1-c1ccc(Cl)c(Cl)c1)c1ccco1
[4]
  AC50: 4.14 µM (active)

## Oc1c(Cl)cc(Cl)cc1CNc1ccc(Br)cn1
[8]
  AC50: 2.56 µM (active)
[4]
  AC50: 5.33 µM (active)

## COc1ccc(NC(=O)c2ccc(NCCCN3CCOCC3)c([N+](=O)[O-])c2)cc1
[2]
  EC50: > 300 µM (not active)
[3]
  EC50: > 300 µM (not active)

## Cc1ccc2cc(/C=C/C(=O)c3ccco3)c(Cl)nc2c1
[9]
  CC50: 21.2 µM (active)
Vero
  CC50: 14.3 µM (active)

## CCOc1ccccc1C1N=C(c2ccc(OC)cc2)CC(c2ccccc2O)N1 (stereo unspecified)
[6]
  EC50: 14.2 µM (active)
[10]
  EC50: 14.3 µM (active)
H4
  EC50: 12.3 µM (active)
Vero
  CC50: > 25 µM (active)

## CCn1c(=N)c(S(=O)(=O)c2ccc(F)cc2)cc2c(=O)n3ccccc3nc21
[2]
  EC50: 7.64 µM (active)
[3]
  EC50: 26.2 µM (inconclusive)
Cytochrome P450 3A4 [11]
  AC50: 10 µM (inconclusive)
Cytochrome P450 2C9
  AC50: 22.4 µM (inconclusive)

## CCOc1cc(/C=C/c2cccc[n+]2C)ccc1OCC(=O)Nc1ccc(C)cc1
[2]
  EC50: > 300 µM (not active)
[3]
  EC50: > 300 µM (not active)

## Cc1ccc(-c2c[nH]c(SCCNC(=O)c3ccco3)n2)cc1
[4]
  AC50: 2.88 µM (active)

## CC(=O)c1ccc(S(=O)(=O)NCC(=O)NC(c2nc3ccccc3[nH]2)C(C)C)cc1 (stereo unspecified)
[4]
  AC50: 0.113 µM (active)

## O=C(N/N=C/c1ccc(Cl)cc1)c1cc(-c2cccnc2)nc2ccccc12
[12]
  EC50: 12.8 µM (active)
[13]
  EC50: 9.23 µM (active)
[14]
  EC50: > 120 µM (not active)

## COc1cc(/C=N/NC(=O)CCN2CCCCC2)ccc1O
[4]
  AC50: 3.05 µM (active)
[15]
  IC50: 32.1 µM (active)

## COc1ccc2c(/C=N/Nc3ccc(C(=O)O)cc3)c[nH]c2c1
[4]
  AC50: 1.9 µM (active)
[15]
  IC50: 54.9 µM (active)

## COc1cc(/C=N/NC2=NCCCCC2)ccc1O
Large T antigen
  IC50: 6.11 µM (active)
[4]
  AC50: 0.028 µM (active)
[15]
  IC50: 22.5 µM (active)

## CN(C)c1ccc(N)cc1
Cytochrome P450 3A4 [1]
  AC50: 15.8 µM (inconclusive)

## Cc1cccc(/C=C\c2ccccc2)n1
Cytochrome P450 3A4 [1]
  AC50: 15.8 µM (inconclusive)

## CC(=O)c1cc2c(cc1O)OC(C)(C)C=C2
Cytochrome P450 3A4 [1]
  AC50: 31.6 µM (inconclusive)

## C=C[C@@](C)(O)CC[C@@H]1[C@@]2(C)CCCC(C)(C)[C@@H]2CC[C@@]1(C)O
Cytochrome P450 3A4 [1]
  AC50: 10 µM (inconclusive)

## CC1=CC(=C(C#N)c2nc3ccccc3s2)C=C(C)N1CC1CCCO1 (stereo unspecified)
[2]
  EC50: 12.3 µM (inconclusive)
[16]
  EC50: 14.7 µM (active)
[3]
  EC50: 13.5 µM (inconclusive)

## COc1ccc(-c2coc3cc(O)ccc3c2=O)c(OC)c1 [2'-METHOXYFORMONETIN]
Cytochrome P450 3A4 [1]
  AC50: 39.8 µM (inconclusive)

## Nc1cc(Cl)cc(C(=O)O)c1Cl [CHLORAMBEN]
Cytochrome P450 3A4 [1]
  AC50: 25.1 µM (inconclusive)

## Cc1cc(O)c(C=O)c(O)c1C(=O)O [HAEMATOMMIC ACID]
Cytochrome P450 3A4 [1]
  AC50: 25.1 µM (inconclusive)
